Reference: patent publication US6844020B2, “Solutions of carotenoids for use in foods and personal care products” (Kemin Foods, L.C., priority 2002, dated 2005)
Several values for one entry are separate records, joined by “and”; a condition that tells them apart may be missing. Identical values can stand only once. Like-named read-outs stand apart in the source and are kept apart here. Values belong to the molecule of their own block, whether it stands above or below them.

Key:
[1] = Beta-carotene solubility in essential oils; type: physicochemical
Procedure: (§1) Beta-carotene was dissolved in each oil until visibly saturated. The sample was then blanketed with argon and sonicated for ten minutes. When the sample was completely saturated, the solution was transferred to a micro centrifuge tube and centrifuged at 14,000 rpm for 10 minutes. The clarified oil was then analyzed for beta-carotene content. The method for analyzing lutein crystals, with a few modifications, was used to analyze beta-carotene. First, methylene chloride was substituted for […] when dissolving the samples. Second, when determining total carotenoids, the absorbance was measured at 453 nm rather than 446 nm. [formula] [formula] [formula]
% Beta Carotene=% Carotenoids*(% Total HPLC area of Beta Carotene/100)

[2] = cited from earlier work
[3] = Zeaxanthin solubility in essential oils; type: physicochemical
Procedure: as §1, with “Zeaxanthin” for “Beta-carotene”, “zeaxanthin” for “beta-carotene”, “crystals” for “crystals, with a few modifications,”, “zeaxanthin, however, a few modifications were made.” for “beta-carotene.”, “[…] When” for “Second, when”, “450” for “453”
% Zeaxanthin=% Carotenoids*(% Total HPLC area of zeaxanthin/100)

[4] = consumption of lutein and zeaxanthin; Seddon et al., 1994; cited from earlier work
[5] = Astaxanthin solubility in essential oils; type: physicochemical
Procedure: (§2) Astaxanthin was dissolved in each oil until visibly saturated. The sample was then blanketed with argon and sonicated for ten minutes. When the sample was completely saturated, the solution was transferred to a micro centrifuge tube and centrifuged at 14,000 rpm for 10 minutes. The clarified oil was then analyzed for astaxanthin content. The method for analyzing lutein crystals was used to analyze astaxanthin, however, a few modifications were made. First, methylene chloride was substituted for […] when dissolving the samples. […] When determining total carotenoids, the absorbance was measured at 470 nm rather than 446 nm. [formula] [formula] [formula] Canthaxanthin in Essentials Oils

[6] = type: physicochemical
Procedure: as §2, with “Canthaxanthin” for “Astaxanthin”, “microcentrifuge” for “micro centrifuge”, “canthaxanthin” for “astaxanthin”, “canthaxanthin,” for “astaxanthin,”, “466” for “470”, “Results and Discussion” for “[formula] Canthaxanthin in Essentials Oils”

[7] = in Bay oil, 50-6025-01, lot BA41-0484
[8] = in Cornmint, redistilled oil, 50-6100-01, lot CR43-0155
[9] = in Peppermint, Yakima redistilled oil, 50-6225-21, lot PY43-0157
[10] = in Spearmint, redistilled oil, 50-6250-11, lot 39SR-0163
[11] = in Tea Tree oil, 50-6270-01, lot TX43-0146
[12] = in Thyme, Pure oil, 50-6275-04, lot TP41-0053
[13] = in Thyme, Red oil, 50-6275-02, lot TR43-0158
[14] = in Thyme, White oil, 50-6275-01, lot TLC11-T477
[15] = in Thyme, White (NOW) oil, 7635
[16] = in Carvacrol (clear oil), 282-197, lot 13403CI
[17] = in Spearmint oil, 05-6250-11, lot SP43-0208
[18] = in Thyme oil, White, 05-6275-01, lot TLC11-T049

% Beta-Carotene [1, 7]: 0.16% and 0.163% | % Beta-Carotene [1, 8]: 0.252% | % Beta-Carotene [1, 9]: 0.263% | % Beta-Carotene [1, 10]: 0.532% | % Beta-Carotene [1, 11]: 0.427% | % Beta-Carotene [1, 12]: 0.245% | % Beta-Carotene [1, 13]: 0.267% | % Beta-Carotene [1, 14]: 0.273%
SMILES: CC1=C(/C=C/C(C)=C/C=C/C(C)=C/C=C/C=C(C)/C=C/C=C(C)/C=C/C2=C(C)CCCC2(C)C)C(C)(C)CCC1 [Beta-carotene, β-carotene]
reported solubility ([2]; in "fats and oils"): 0.05-0.08%

% Carotenoids [3, 7]: 0.281% | % Zeaxanthin [3, 7]: 0.276% | % Carotenoids [3, 8]: 0.403% | % Zeaxanthin [3, 8]: 0.397% | % Carotenoids [3, 9]: 0.452% | % Zeaxanthin [3, 9]: 0.446% | % Carotenoids [3, 10]: 0.374% | % Zeaxanthin [3, 10]: 0.369% | % Carotenoids ([3]; in Tea Tree (NOW) oil, 7625): 0.398% | % Zeaxanthin ([3]; in Tea Tree (NOW) oil, 7625): 0.394% | % Carotenoids [3, 11]: 0.364% | % Zeaxanthin [3, 11]: 0.361% | % Carotenoids [3, 12]: 0.920% | % Zeaxanthin [3, 12]: 0.916% | % Carotenoids [3, 13]: 1.063% | % Zeaxanthin [3, 13]: 1.059% | % Carotenoids [3, 15]: 0.784% | % Zeaxanthin [3, 15]: 0.782% | % Carotenoids [3, 14]: 1.049% | % Zeaxanthin [3, 14]: 1.043% | zeaxanthin solubility ([3]; in all of the oils except the thyme oils): less than 1% | zeaxanthin solubility ([3]; in thyme oil): ~1%
SMILES: CC1=C(/C=C/C(C)=C/C=C/C(C)=C/C=C/C=C(C)/C=C/C=C(C)/C=C/C2=C(C)C[C@@H](O)CC2(C)C)C(C)(C)C[C@H](O)C1 [Zeaxanthin, zeaxanthin]
reduction in age-related macular degeneration [4]: 57% | reported solubility ([2]; in corn oil): 0.004%

% Astaxanthin by HPLC [5, 16]: 0.2420% | % Astaxanthin by HPLC ([5]; in Carvacrol (clear oil), 282-197, lot 13403CI, listed as astaxanthin): ~0.24% | % Astaxanthin by HPLC [5, 17]: 0.0301% | % Astaxanthin by HPLC [5, 18]: 0.1876% | times less soluble than lutein ([5]; in spearmint oil): 33 times | times less soluble than lutein ([5]; in white thyme oil): 16 times
SMILES: CC1=C(/C=C/C(C)=C/C=C/C(C)=C/C=C/C=C(C)/C=C/C=C(C)/C=C/C2=C(C)C(=O)[C@@H](O)CC2(C)C)C(C)(C)C[C@H](O)C1=O [Astaxanthin, astaxanthin]

% Canthaxanthin by HPLC [6, 16]: 0.0020% | % Canthaxanthin by HPLC [6, 17]: 0.0028% | % Canthaxanthin by HPLC [6, 18]: 0.0036%
SMILES: CC1=C(/C=C/C(C)=C/C=C/C(C)=C/C=C/C=C(C)/C=C/C=C(C)/C=C/C2=C(C)C(=O)CCC2(C)C)C(C)(C)CCC1=O [Canthaxanthin, canthaxanthin]
